From patent US20070185116A1, “Bicyclic compounds” (TANABE SEIYAKU CO., LTD., priority 2004, published 2007) come the findings set out here.

Assay [1] relates to rhythmic bladder contractions induced by substance P. Kind of assay: Inhibitory effect on the rhythmic bladder contractions induced by substance P in anesthetized rats. The class given is in vivo, rat. As to conditions: 0.25 mg/kg, intravenous administration; urethane-anesthetized female Sprague-Dawley rats; observed for 35 minutes.
The subject of assay [2] is isolated rabbit urinary bladder. Kind of assay: Relaxation effect on potassium-induced contraction of isolated rabbit urinary bladder. The class given is cell-based. As to conditions: Oryctolagus cuniculus; strips pre-contracted with high-K+ (30 mM) Krebs solution; relaxation as percentage of maximum relaxation by 10^-4 M papaverine; read-out: IC50 value (50% relaxation concentration). The protocol: [Relaxation Effect on Potassium-Induced Contraction of Isolated Rabbit Urinary Bladder]
Urinary bladder was isolated from Male NZW rabbits (body weight: 2.0-3.5 kg) and immersed in ice-cold Krebs-bicarbonate solution (in mM: 118 NaCl, 4.7 KCl, 2.55 CaCl2, 1.18 MgSO4, 1.18 KH2PO4, 24.88 NaHCO3 and 11.1 glucose). The urinary bladder was cut into longitudinal strips (5 mm length, 3-4 mm width) after mucosal layer was removed.
Preparations were mounted in organ baths containing 10 ml of Krebs solution maintained at 37° C. and gassed with 95% O2/5% CO2. Accordingly, preparations were stretched with an initial tension of 2.0±1.0 g, and changes in isometric tension were measured by force-displacement transducer. The preparations were pre-contracted by changing organ-bath solution into high-K^+ (30 mM) Krebs solution (in mM: 118 NaCl, […], 2.55 CaCl2, 1.18 MgSO4, 1.18 KH2PO4, 24.88 NaHCO3 and 11.1 glucose).
After stable tension was obtained, compounds were added into organ baths cumulatively (10^−8 M-10^−4 M). The effects of compounds were expressed as a percentage of the maximum relaxation produced by 10^−4 M papaverine as 100%. 50% relaxation concentration (IC50) was calculated and IC50 value range (μM) of compounds of the present invention was shown in the following Table 1 with a rank of A, B or C.
These ranges are as mentioned below.

pIC50: −log10 of the molar value.

With `Cc1ccccc1-c1ncc(Cl)cc1-c1ccc(C(N)=O)cc1` [Example 43], the “100% inhibition time: Time (min) during which the frequency of the rhythmic contraction had been completely inhibited” value in assay [1] is on record as over 35 min. Moreover, in assay [2], the pIC50 is 6.00 to 6.30.
Turning to `Cc1ccc(-c2ncc(Cl)cc2-c2ccc(C(N)=O)cc2)cn1` [Example 1], in assay [1], the “100% inhibition time: Time (min) during which the frequency of the rhythmic contraction had been completely inhibited” value worked out at 20.5 min. In addition, the pIC50 in assay [2] is 6.00 to 6.30.
